PMC5575254, “An allosteric ligand-binding site in the extracellular cap of K2P channels” (Nature Communications, 2017)
Changes are numbered by the printed parent chain.

Tests used:
mice = experiment: Acute administration behavioral tests; format: in vivo, Male C57BL/6 mice; conditions: single i.p. injection, tests 30 min after administration
Description: Male C57BL/6 mice, aged 8 weeks (weighing 18–20 g) were used for acute and chronic drug administration and behavioral tests. The mice were housed four per cage under a 12-h light–dark cycle. Mice were raised under stable conditions with food and water ad libitum. All animal studies and experimental procedures were approved by the Animal Care Committees of the Shanghai Institute of Materia Medica, Chinese Academy of Sciences, and experiments were carried out in accordance with EU Directive 2010/63/EU on the protection of animals used for scientific purposes. […] The mice were removed to a sound-attenuating testing room 3–4 h before testing. […]
The apparatus was made of opaque Plexiglas (50 cm × 50 cm) and placed in a room with sound proof. […] The mice were randomly placed into the center of the sheet following 30 min drugs administration and their behaviors in the open field arena were recorded for 10 min using the camera. […] Locomotor activity and exploratory behavior were measured in the open field test and each animal was placed individually at the center for a 10 min session. The total distance moved and the number of rearing was measured in this experiment. […]
The mice were performed under normal light. […] The duration of immobility defined as floating or remaining motionless was assessed. […]

mutant TREK-1 channels [1] = target: T1, mutant TREK-1 channels (Homo sapiens, UniProt O95069, T94A); experiment: Whole-cell voltage clamp of mutant TREK-1 channels; format: cell-based; conditions: T79A mutant
T1 construct: expressed in transfected cells; host or cells: CHO cells, transient transfection
T1 sequence (O95069 1-411 isoform O95069-2 T79A): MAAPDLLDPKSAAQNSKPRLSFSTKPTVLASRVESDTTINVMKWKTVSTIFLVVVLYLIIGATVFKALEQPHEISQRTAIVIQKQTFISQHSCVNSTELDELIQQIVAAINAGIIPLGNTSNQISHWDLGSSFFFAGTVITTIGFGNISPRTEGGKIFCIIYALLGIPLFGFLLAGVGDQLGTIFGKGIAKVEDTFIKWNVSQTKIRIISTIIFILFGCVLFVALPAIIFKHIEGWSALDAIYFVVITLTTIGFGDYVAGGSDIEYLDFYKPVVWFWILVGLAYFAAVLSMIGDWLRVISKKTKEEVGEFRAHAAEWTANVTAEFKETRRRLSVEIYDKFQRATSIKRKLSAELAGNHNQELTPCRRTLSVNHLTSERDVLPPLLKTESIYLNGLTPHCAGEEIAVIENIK
From the text: (§1) cDNA of the human TREK-1, TREK-2 and TRAAK channels were subcloned into the pEGFPN1 expression vector (Invitrogen), respectively. Mutations were introduced into TREK-1 or TRAAK by PCR using the QuickChange XL sitedirected mutagenesis kit (Agilent Technologies) and were subsequently confirmed by DNA sequencing.
(§2) Chinese hamster ovary (CHO) cells were provided by the Cell Bank of Chinese Academy of Sciences (Shanghai, China). CHO cells were maintained in DMEM/F12 (Gibco) supplemented with 10% fetal bovine serum (Gibco) and 100 μg ml^−1 penicillin-streptomycin (Cellgro) in a humidified incubator at 37 °C (5% CO2). For electrophysiology experiments, cells plated in 35 mm tissue culture dishes (Corning Incorporated) were transiently transfected with the plasmids using PolyJet™ reagent (SignaGen) according to the manufacturer’s instructions. Primers used in this study are listed in Supplementary Table 4.
(§3) All electrophysiological recordings were obtained using patch-clamp recordings in two different configurations: (1) whole cell for macroscopic current dose–response curves; and (2) outside-out and inside-out for macroscopic currents recordings.
(§4) All patch-clamp recordings were conducted 36–96 h after transfection with an Axopatch-200B amplifier (Molecular Devices) at room temperature (23–25 °C). The microelectrodes fashioned from 1.5 mm thin-walled borosilicate glass with filament were pulled from Flaming/Brown type micropipette puller (P-97; SUTTER INSTRUMENT) with the resistances of 3–7 MΩ (whole cell) or 7–15 MΩ (outside-out) when filled with a solution containing (in mM): 140 KCl, 2 MgCl2, 10 EGTA, 1 CaCl2, 10 HEPES (pH 7.3, adjusted with KOH). External solution contained (in mM): 150 NaCl, 5 KCl, 0.5 CaCl2, 1.2 MgCl2, 10 HEPES (pH 7.3, adjusted with NaOH). The current signals were filtered at 1 kHz and digitized at a 10 kHz sampling frequency by using DigiData 1440 A.
(§5) Data of whole-cell voltage clamp experiments were fitted using doseResp function. […]

mutant TREK-1 channels [2] = target: T2, mutant TREK-1 channels (Homo sapiens, UniProt O95069, Q120A); experiment: Whole-cell voltage clamp of mutant TREK-1 channels; format: cell-based; conditions: Q105A mutant
T2 construct: expressed in transfected cells; host or cells: CHO cells, transient transfection
T2 sequence (O95069 1-411 isoform O95069-2 Q105A): T1 sequence (O95069 1-411 isoform O95069-2 T79A) with A79T, Q105A
From the text: as §1, §2, §3, §4, §5

IC50 (mutant TREK-1 channels [1]): 2400 ± 400 nM | IC50 (mutant TREK-1 channels [2]): 2200 ± 500 nM
Compound: CS(=O)(=O)N(CC(=O)N1CCc2ccccc2C1)c1ccc(Cl)cc1 [TKDC, N-(4-cholorphenyl)-N-(2-(3,4-dihydrosioquinolin-2(1H)-yl)-2-oxoethyl)methanesulfonamide]
antidepressant-like effect in the acute treatment (mice): fast antidepressant-like effect
